The values that follow come from patent publication US9765035B2 (priority 2013, dated 2017).

SMILES strings stand for the structures. Where two headings read alike, the source gives them in different places.

The experiment deals with human PRMT6 (Homo sapiens, UniProt Q96LA8). Nature of the experiment: biochemical.
Where [1] appears, read: biochemical evaluation, peptide substrate, read-out: PRMT6 IC50.
The mark [2] stands for this setting: single experiment or average of multiple experiments, read-out: PRMT6 biochemical evaluation (numerical).

Sequence of human PRMT6 (Q96LA8 with tags, fused parts or gaps): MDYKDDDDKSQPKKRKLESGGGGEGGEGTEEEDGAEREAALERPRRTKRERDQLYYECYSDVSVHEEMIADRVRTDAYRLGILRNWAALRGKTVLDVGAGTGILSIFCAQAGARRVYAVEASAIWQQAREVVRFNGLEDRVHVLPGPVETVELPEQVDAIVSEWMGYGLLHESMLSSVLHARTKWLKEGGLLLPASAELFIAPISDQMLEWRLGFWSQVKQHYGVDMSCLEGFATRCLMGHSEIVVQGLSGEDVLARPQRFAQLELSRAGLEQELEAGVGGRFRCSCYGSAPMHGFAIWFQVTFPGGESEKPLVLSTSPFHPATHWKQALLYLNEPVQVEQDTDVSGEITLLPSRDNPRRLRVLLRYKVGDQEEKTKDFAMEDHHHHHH

As to `CCCOc1ccc2[nH]nc(CN(C)CCNC)c2c1` [Compound 65], the IC50 is, setting by setting: under setting [1], below 100 nM; under setting [2], 105 nM.
The corresponding values for `CNCCN(C)Cc1n[nH]c2ccc(OCc3cccc(C(N)=O)c3)cc12` [Compound 66] are below 100 nM and 56.4 nM.
In the same order, the values of `CNCCN(C)Cc1n[nH]c2ccc(Oc3cccc(OC(C)C)c3)cc12` [Compound 67] are below 100 nM and 56.2 nM.
In the same order, the values of `CNCCN(C)Cc1n[nH]c2ccc(OCc3ccc(C(F)(F)F)cc3)cc12` [Compound 68] are below 100 nM and 39.7 nM.
As for `CNCCN(C)Cc1n[nH]c2ccc(OCc3ccc(C(N)=O)cc3)cc12` [Compound 69], the IC50 under setting [1] is below 100 nM and the IC50 under setting [2] worked out at 34.2 nM.
The corresponding values for `CNCCN(C)Cc1n[nH]c2ccc(OCc3cccc(NC(C)=O)c3)cc12` [Compound 70] are below 100 nM and 15.1 nM.
In the same order, the values of `CNCCN(C)Cc1n[nH]c2ccc(OCc3ccc(C(C)(C)C)cc3)cc12` [Compound 71] are below 100 nM and 13.1 nM.
In the same order, the values of `CNCCN(C)Cc1n[nH]c2ccc(OCc3cccc(C(F)(F)F)c3)cc12` [Compound 72] are below 100 nM and 12.7 nM.
With `CNCCN(C)Cc1n[nH]c2ccc(OCc3cccc(C(C)=O)c3)cc12` [Compound 73], the IC50 under setting [1] is below 100 nM and the IC50 under setting [2] stood at 9.49 nM.
In the same order, the values of `CNCCN(C)Cc1n[nH]c2ccc(OCc3cccc(C(C)(C)C)c3)cc12` [Compound 74] are below 100 nM and 9.09 nM.
